PMC12828764, “The electrophilic metabolite of kynurenine, kynurenine-CKA, requires C151 in Keap1 to derepress Nrf2” (Redox Biology, 2025)

Legend:
[1] = tested on: T1, Keap1; assay: intact-protein MS and MS/MS adduct mapping, UV-Vis reaction kinetics with purified Keap1-BTB (no reaction with C151S); the IC50 is from ITDRF-CETSA of Keap1-mCherry in cell lysate; type: binding
T1 construct: cell lysate CETSA

[2] = molecular target: Cys151 (UniProt position 151, SMGEKCVLHVM); details: not stated (reduced, unmodified C151 implied); cited from earlier work

| EC50 [1] [µM] | Molecule | pKa [2] |
| --- | --- | --- |
| 12 | Nc1ccccc1C(=O)/C=C/C(=O)O (mixture of isomers) [Kyn-CKA, (E)- and (Z)-(4-(2-aminophenyl)-4-oxobut-2-enoic acids] |  |
|  | Kelch-like ECH-associated protein 1 (Keap1), BTB domain (not stated for the recombinant protein (probably Homo sapiens, inferred)) | 6.9 |
